In ChEMBL document CHEMBL1159211, “Antifungal evaluation of pseudolaric acid B, a major constituent of Pseudolarix kaempferi” (J Nat Prod, 1995):
In brackets after ≈: the same amount, converted by molar mass. Activity calls are given as the source filed them. The rule behind the calls is not given here.

Assays:
[1] = test system: Candida albicans; assay: Antimicrobial activity against Candida albicans at 1 mg/mL by agar-well diffusion assay; format: functional; conditions: Candida albicans; read-out: IZ
[2] = test system: Aspergillus flavus; assay: Antimicrobial activity against Aspergillus flavus at 1 mg/mL by agar-well diffusion assay; format: functional
[3] = test system: Aspergillus fumigatus; assay: Antimicrobial activity against Aspergillus fumigatus at 1 mg/mL by agar-well diffusion assay; format: functional
[4] = test system: Cryptococcus neoformans; assay: Antimicrobial activity against Cryptococcus neoformans at 1 mg/mL by agar-well diffusion assay; format: functional
[5] = test system: Trichophyton mentagrophytes; assay: Antimicrobial activity against Trichophyton mentagrophytes at 1 mg/mL by agar-well diffusion assay; format: functional
[6] = test system: Nannizzia gypsea; assay: Antimicrobial activity against Microsporum gypseum at 1 mg/mL by agar-well diffusion assay; format: functional
[7] = test system: Saccharomyces cerevisiae; assay: Antimicrobial activity against Saccharomyces cerevisiae at 1 mg/mL by agar-well diffusion assay; format: functional, organism-based
[8] = test system: Escherichia coli; assay: Antimicrobial activity against Escherichia coli at 1 mg/mL by agar-well diffusion assay; format: functional, organism-based
[9] = test system: Staphylococcus aureus; assay: Antimicrobial activity against Staphylococcus aureus at 1 mg/mL by agar-well diffusion assay; format: functional, organism-based
[10] = test system: Bacillus subtilis; assay: Antimicrobial activity against Bacillus subtilis at 1 mg/mL by agar-well diffusion assay; format: functional, organism-based
[11] = test system: Pseudomonas aeruginosa; assay: Antimicrobial activity against Pseudomonas aeruginosa at 1 mg/mL by agar-well diffusion assay; format: functional, organism-based
[12] = test system: Mycobacterium intracellulare; assay: Antimicrobial activity against Mycobacterium intracellular at 1 mg/mL by agar-well diffusion assay; format: functional; conditions: for zone of inhibition at 1000 µg/mL: read-out: IZ
[13] = test system: Candida albicans; assay: Antifungal activity against Candida albicans B311 assessed decrease in number of viable cells at 1 to 10 ug/ml after 24 hrs by time-to kill curve assay; format: functional, organism-based
[14] = test system: Candida albicans; assay: Antifungal activity against Candida albicans B311 infected in CD1 mouse assessed as prolongation of survival time at 10 mg/kg, iv administered 1, 3 and 5 days postinfection; format: functional, organism-based; set-up: dose 10 mg/kg
[15] = test system: Candida albicans; assay: Antifungal activity against Candida albicans B311 infected in CD1 mouse assessed as prolongation of survival time at 40 mg/kg, ip administered 7 hrs postinfection and continued for 7 or 14 consecutive days; format: functional, organism-based; set-up: dose 40 mg/kg
[16] = test system: Candida albicans; assay: Antifungal activity against Candida albicans B311 at 1 mg/mL by agar-well diffusion assay; format: functional; conditions: Candida albicans, B311; read-out: IZ
[17] = test system: Candida albicans; assay: Antifungal activity against Candida albicans ATCC 10231 at 1 mg/mL by agar-well diffusion assay; format: functional; conditions: Candida albicans, ATCC 10231; read-out: IZ
[18] = test system: Starmerella magnoliae; assay: Antifungal activity against Candida magnoliae ATCC 12573 at 1 mg/mL by agar-well diffusion assay; format: functional; conditions: ATCC 12573; read-out: IZ
[19] = test system: Candida parapsilosis; assay: Antifungal activity against Candida parapsilosis ATCC 20224 at 1 mg/mL by agar-well diffusion assay; format: functional; conditions: Lodderomyces parapsilosis, ATCC 20224; read-out: IZ
[20] = test system: Candida albicans; assay: Antifungal activity against Candida stellatoidea SA-I at 1 mg/mL by agar-well diffusion assay; format: functional; conditions: Candida albicans; read-out: IZ
[21] = test system: Candida tropicalis; assay: Antifungal activity against Candida tropicalis ATCC 20326 at 1 mg/mL by agar-well diffusion assay; format: functional; conditions: Candida tropicalis, ATCC 20326; read-out: IZ
[22] = test system: Candida tropicalis; assay: Antifungal activity against Candida tropicalis ATCC 20021 at 1 mg/mL by agar-well diffusion assay; format: functional; conditions: Candida tropicalis, ATCC 20021; read-out: IZ
[23] = test system: Candida tropicalis; assay: Antifungal activity against Candida tropicalis LM 64 at 1 mg/mL by agar-well diffusion assay; format: functional; conditions: Candida tropicalis; read-out: IZ
[24] = test system: Yarrowia deformans; assay: Antifungal activity against Torulopsis petrophilum ATCC 20225 at 1 mg/mL by agar-well diffusion assay; format: functional; conditions: Yarrowia deformans, ATCC 20225; read-out: IZ
[25] = test system: Torula; assay: Antifungal activity against Torula cremoris NRRL 7495 at 1 mg/mL by agar-well diffusion assay; format: functional; conditions: Torula, NRRL 7495; read-out: IZ
[26] = test system: Candida albicans; assay: Antifungal activity against Candida albicans B311 by twofold serial broth dilution method; format: functional
[27] = test system: Candida albicans; assay: Antifungal activity against Candida albicans ATCC 10231 by twofold serial broth dilution method; format: functional
[28] = test system: Candida parapsilosis; assay: Antifungal activity against Candida parapsilosis ATCC 20224 by twofold serial broth dilution method; format: functional; conditions: Lodderomyces parapsilosis
[29] = test system: Candida albicans; assay: Antifungal activity against Candida stellatoidea SA-I by twofold serial broth dilution method; format: functional
[30] = test system: Candida tropicalis; assay: Antifungal activity against Candida tropicalis ATCC 20326 by twofold serial broth dilution method; format: functional
[31] = test system: Candida tropicalis; assay: Antifungal activity against Candida tropicalis ATCC 20021 by twofold serial broth dilution method; format: functional
[32] = test system: Candida tropicalis; assay: Antifungal activity against Candida tropicalis LM 64 by twofold serial broth dilution method; format: functional
[33] = test system: Yarrowia deformans; assay: Antifungal activity against Torulopsis petrophilum ATCC 20225 by twofold serial broth dilution method; format: functional
[34] = test system: Torula; assay: Antifungal activity against Torula cremoris NRRL 7495 by twofold serial broth dilution method; format: functional
[35] = test system: Candida albicans; assay: Antifungal activity against Candida albicans NIH B311 infected in mouse assessed as reduction in number of recovered colony-forming units assessed per mg of kidney at 1 mg/kg, ip administered 7 and 24 hrs after infection measured 16 hrs after final injection by tenfold serial dilution method relative to control; format: functional; set-up: scale not given: the % may be the effect or the level left; conditions: route intraperitoneal

Row | SMILES | zone of inhibition at 1000 µg/mL [1] [mm] | Activity [2] | Activity [3] | Activity [4] | Activity [6] | Activity [7] | Activity [8] | Activity [9] | Activity [10] | Activity [11] | zone of inhibition at 1000 µg/mL [12] [mm] | further results
1 | COC(=O)C1=CC[C@@]23CC[C@@H]([C@@](C)(/C=C/C=C(\C)C(=O)OC)OC2=O)[C@@]3(OC(C)=O)CC1 | < 1 | inactive | inactive | inactive | inactive | inactive | inactive | inactive | inactive | inactive | 1 | Activity [5]: inactive
2 | COC(=O)C1=CC[C@@]23CC[C@@H]([C@@](C)(/C=C/C=C(\C)C(=O)O)OC2=O)[C@@]3(OC(C)=O)CC1 |  | inactive |  | inactive |  | inactive | inactive | inactive | inactive | inactive |  | Activity [12]: inactive; Activity [13]: Active; Activity [14]: Active; Activity [15]: inactive
3 | C[C@@H]1[C@H](O)[C@@H](C)/C=C/C=C/C=C/C=C/C=C/C=C/C=C/[C@H](O[C@@H]2O[C@H](C)[C@@H](O)[C@H](N)[C@@H]2O)C[C@@H]2O[C@](O)(C[C@@H](O)C[C@@H](O)[C@H](O)CC[C@@H](O)C[C@@H](O)CC(=O)O[C@H]1C)C[C@H](O)[C@H]2C(=O)O [AMPHOTERICIN B] |  |  |  |  |  |  |  |  |  |  |  | zone of inhibition at 1000 µg/mL [16]: 7 mm; zone of inhibition at 1000 µg/mL [17]: 7 mm; zone of inhibition at 1000 µg/mL [18]: 7 mm; zone of inhibition at 1000 µg/mL [19]: 3 mm; zone of inhibition at 1000 µg/mL [20]: 7 mm; zone of inhibition at 1000 µg/mL [21]: 7 mm; zone of inhibition at 1000 µg/mL [22]: 7 mm; zone of inhibition at 1000 µg/mL [23]: 7 mm; zone of inhibition at 1000 µg/mL [24]: 7 mm; zone of inhibition at 1000 µg/mL [25]: 7 mm; MIC [26]: 1.56 µg/mL (≈ 1.69 µM); MIC [27]: 3.12 µg/mL (≈ 3.38 µM); MIC [28]: 1.56 µg/mL (≈ 1.69 µM); MIC [29]: 3.12 µg/mL (≈ 3.38 µM); MIC [30]: 1.56 µg/mL (≈ 1.69 µM); MIC [31]: 3.12 µg/mL (≈ 3.38 µM); MIC [32]: 1.56 µg/mL (≈ 1.69 µM); MIC [33]: 0.2 µg/mL (≈ 0.216 µM); MIC [34]: 3.12 µg/mL (≈ 3.38 µM); Activity [35]: 99.82%
4 | C/C(=C\C=C\[C@@]1(C)OC(=O)[C@]23CC=C(C(=O)O)CC[C@]2(O)[C@H]1CC3)C(=O)O [DEMETHOXYDEACETOXYPSEUDOLARIC ACID B] | < 1 | inactive | inactive | inactive | inactive | inactive | inactive | inactive | inactive | inactive | 1 | zone of inhibition at 1000 µg/mL ([5]; Trichophyton mentagrophytes, read-out: IZ): 3 mm
